Data taken from PubChem BioAssay AID434987 (Southern Research Specialized Biocontainment Screening …, 2010).
Calls of active or inactive are those of the source. No rule for the calls is given here.

Test system: M. tuberculosis H37Rv growth inhibition with meropenem
Assay: dose response, H37Rv, with and without meropenem (AID 434987);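 also: growth over 7 days at 37 °C before Alamar Blue read on day 9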
[1] = M. tuberculosis H37Rv growth inhibition, measured here: IC50 without meropenem
[2] = M. tuberculosis H37Rv growth inhibition, measured here: IC90 without meropenem
[3] = measured here: IC90 with meropenem

Compound	IC50	IC50 [1]	IC90 [2]	IC90 [3]
CN(C)C1=C(Cl)C(=O)N(c2ccc(Cl)c(Cl)c2)C1=O	2.73 µM	7.91 µM	24 µM	14.9 µM
Cc1ccc(NC(=O)O/N=C/c2c(C)nn(C(C)(C)C)c2C)cc1Cl	> 100 µM (inactive)	> 100 µM	> 100 µM	> 100 µM
O=C(Nc1nc2ccccc2[nH]1)c1ccccc1F	> 100 µM (inactive)	> 100 µM	> 100 µM	> 100 µM
C#CCOc1c(Cl)cc(/C=N/NC(N)=S)cc1OCC	87.6 µM (inactive)	> 100 µM	> 100 µM	> 100 µM
COc1cc(C(=O)Oc2cccnc2)cc(OC)c1OC	5.8 µM	48.4 µM	> 100 µM	13.6 µM
CCCCCn1c(=O)c(C(=O)Nc2cnccn2)c(O)c2ccccc21	10.8 µM (inactive)	13.7 µM	16.4 µM	13.8 µM
O=C1N/C(=N\N=C\c2ccc3ncccc3c2)SC1Cc1ccc(SC(F)F)cc1 (stereo unspecified)	> 100 µM (inactive)	> 100 µM	> 100 µM	> 100 µM
CC1(C)CC(=O)c2cc(C(=O)NCc3ccco3)c(=O)n(-c3ccccc3)c2C1	> 100 µM (inactive)	> 100 µM	> 100 µM	> 100 µM
NC(=O)C1CCCN(C(=O)c2ccc(NC(=O)c3cccs3)cc2)C1 (stereo unspecified)	> 100 µM (inactive)	> 100 µM	> 100 µM	> 100 µM
C(=N\n1cnnc1)/c1ccc(-c2ccccc2)cc1	> 100 µM (inactive)	> 100 µM	> 100 µM	> 100 µM
Cn1c(/C=C/c2ccc(Cl)cc2)nc2ccccc2c1=O	52.1 µM (inactive)	> 100 µM	> 100 µM	> 100 µM
CC1CN(C(=S)NC(=O)c2cccc([N+](=O)[O-])c2)CC(C)O1 (stereo unspecified)	11.8 µM	42.3 µM	> 100 µM	> 100 µM
O=C(OCC(=O)c1c[nH]c2ccccc12)c1cccc([N+](=O)[O-])c1	> 100 µM (inactive)	> 100 µM	> 100 µM	> 100 µM
CN(NC(=O)c1c(Cl)cccc1Cl)c1cccc(Cl)n1	7.34 µM	62.3 µM	> 100 µM	> 100 µM
COc1ccc(N2C(=O)NC(=O)/C(=C\c3ccc([N+](=O)[O-])s3)C2=O)cc1	16.3 µM (inactive)	22.9 µM	25.7 µM	21.3 µM
CN(/N=C/c1ccncc1)c1cnc2ccccc2n1	59.8 µM (inactive)	> 100 µM	> 100 µM	> 100 µM
CC1=NN(c2ccccc2)C(=O)C1C=Nc1ccccc1O (stereo unspecified)	> 100 µM (inactive)	> 100 µM	> 100 µM	> 100 µM
Cc1ccc(OCC(=O)Nc2ccc3c4c(cccc24)CC3)c(C)c1	1.71 µM	> 100 µM	> 100 µM	> 100 µM
CCOC(=O)CSc1nnc(NC(=O)c2cccc(S(=O)(=O)N3CCCCC3)c2)s1	23.8 µM (inactive)	41 µM	> 100 µM	> 100 µM
CN1C2CCC1CC(OC(=O)c1ccc([N+](=O)[O-])cc1)C2 (stereo unspecified)	> 100 µM (inactive)	> 100 µM	> 100 µM	> 100 µM

Compound	IC50	IC50 [1]	IC90 [2]	IC90 [3]
O=C(Nc1ccc(C(F)(F)F)cc1)c1cc(-c2cccnc2)nc2ccc(Br)cc12	> 100 µM (inactive)	> 100 µM	> 100 µM	> 100 µM
COCCNC(=O)c1ccc(NC(=O)C2(c3ccccc3)CCCC2)cc1	8.1 µM	33.4 µM	> 100 µM	> 100 µM
CCCCN=C1CC(C)(C)CC(=O)/C1=C(/O)CCC	18.9 µM (inactive)	42.1 µM	> 100 µM	28.7 µM
O=C(Cc1ccccc1)NC(=S)Nc1ccc(N2CCCCC2)cc1	> 100 µM (inactive)	> 100 µM	> 100 µM	> 100 µM
O=C(Nc1ccc(Cl)cc1F)c1cccc2ccccc12	> 100 µM (inactive)	> 100 µM	> 100 µM	> 100 µM
CC(C)(C)NS(=O)(=O)c1ccc(NC(=O)C(Sc2ccccc2)c2ccccc2)cc1 (stereo unspecified)	> 100 µM (inactive)	> 100 µM	> 100 µM	> 100 µM
Cc1ccc(S(=O)(=O)Nc2cccc3cccnc23)c([N+](=O)[O-])c1	1.1 µM	9.07 µM	12.4 µM	4.7 µM
O=C(Cn1nnc2c(cnn2-c2ccccc2)c1=O)N1CCN(c2ccccc2F)CC1	> 100 µM (inactive)	> 100 µM	> 100 µM	> 100 µM
Cn1c(=O)c2[nH]c(CNCc3ccccc3Cl)nc2n(C)c1=O	37.1 µM	> 100 µM	> 100 µM	> 100 µM
COCCNC(=O)COc1ccc(Oc2ccccc2)cc1	49.5 µM (inactive)	> 100 µM	> 100 µM	> 100 µM
Cc1n[nH]c(C)c1CCCOc1ccccc1	24.1 µM (inactive)	39.5 µM	> 100 µM	> 100 µM
CC(=O)Nc1ccc(S(=O)(=O)Nc2cccc3cccnc23)cc1	13.2 µM (inactive)	21.5 µM	> 100 µM	43.3 µM
COc1ccc(NC(=O)C/C(C)=N/NC(=O)c2cnccn2)cc1	20.1 µM	> 100 µM	> 100 µM	> 100 µM
CCOc1ccc2nc(NC(=O)c3cnccn3)sc2c1	4.07 µM	> 100 µM	> 100 µM	> 100 µM
Cc1cccnc1NC(=S)NC(=O)c1cncc(Br)c1	4.68 µM	40.3 µM	> 100 µM	> 100 µM
COc1ccc(C(=O)NC(=S)Nc2ccc(S(=O)(=O)Nc3cc(C)on3)cc2)cc1OC	13.8 µM	36.5 µM	> 100 µM	29 µM
CCC(CC)NC(=O)CON=C1c2ccccc2-c2ccccc21	> 100 µM (inactive)	> 100 µM	> 100 µM	> 100 µM
C/C(=N/NC(=O)c1cccs1)c1c(C)[nH]n(-c2nc3ccccc3s2)c1=O	1.44 µM (inactive)	1.52 µM	1.69 µM	1.58 µM
CCOC(=O)C1CCN(C(=O)CCCCn2c(=O)[nH]c3ccccc3c2=O)CC1	> 100 µM (inactive)	> 100 µM	> 100 µM	> 100 µM
O=C(c1cc2c(s1)CCCC2)n1cccn1	93.4 µM (inactive)	> 100 µM	> 100 µM	> 100 µM

Compound	IC50	IC50 [1]	IC90 [2]	IC90 [3]
O=C(CN1CCN(S(=O)(=O)c2ccc(F)cc2)CC1)Nc1ccc2c(c1)OCCO2	19.1 µM	88.2 µM	> 100 µM	> 100 µM
CCOc1cc(/C=N/Nc2nc(-c3cccs3)c(NC(C)=O)s2)ccc1O	42.4 µM (inactive)	> 100 µM	> 100 µM	> 100 µM
O=C1C(Cl)=C(N2CCCCC2)C(=O)N1c1ccccc1	23.9 µM	> 100 µM	> 100 µM	> 50 µM
COc1cccc(CNC(=O)C(Cc2ccccc2)n2cccc2)c1 (stereo unspecified)	50.7 µM (inactive)	67.4 µM	> 100 µM	> 100 µM
Cc1ccc(C(=O)NCC2(c3ccccc3)CCCC2)cc1	75.3 µM (inactive)	> 100 µM	> 100 µM	> 100 µM
O=C(OCC(=O)N(Cc1ccccc1)C1CCS(=O)(=O)C1)c1cc2c(s1)CCCC2 (stereo unspecified)	90.7 µM (inactive)	94.2 µM	> 100 µM	> 100 µM
C=C1C(=O)O[C@@H]2[C@H]1[C@@H](OC(=O)/C(C)=C/C)C/C(C)=C\C(=O)/C=C(\C)[C@@H]2O	1.24 µM	18.6 µM	29 µM	25.2 µM
Cc1ccc(CNC(=O)c2ccccc2NC(=O)CSc2nnnn2C)cc1	36.6 µM (inactive)	81.1 µM	> 100 µM	> 100 µM
O=C(Cc1ccc(Cl)cc1Cl)Nc1ccc(OC(F)F)c(Cl)c1	12.1 µM	> 100 µM	> 100 µM	13.7 µM
O=C(/C=C/c1ccc([N+](=O)[O-])cc1)c1cccs1	5.35 µM	22.2 µM	95.1 µM	12.2 µM
O=C1O/C(=C/c2ccccc2)N=C1c1ccccc1	1.34 µM	16.9 µM	> 100 µM	28.3 µM
C/C(=N\NC(=O)c1cc2c(s1)CCC(C)C2)c1ccc[nH]1 (stereo unspecified)	6.51 µM	> 100 µM	> 100 µM	> 100 µM
O=C(CSc1ccc([N+](=O)[O-])cn1)Nc1ccc(N2CCOCC2)cc1	4.82 µM	17.6 µM	> 100 µM	> 100 µM
NC(=S)N/N=C/c1ccc2ccccc2c1	2.02 µM	> 100 µM	> 100 µM	> 100 µM
CCN(CC)c1ccc(NC(=O)c2cc(Cl)ccc2OC)cc1	24.2 µM	> 100 µM	> 100 µM	> 100 µM
c1ccc(-c2cc(N3CCOCC3)nc3ccccc23)cc1	2.78 µM	> 100 µM	> 100 µM	91.5 µM
O=C(NCc1ccc2c(c1)OCO2)Nc1ccc2ccccc2c1	78.3 µM (inactive)	> 100 µM	> 100 µM	> 100 µM
CCOC(=O)/C=c1\s/c(=C\c2c(OC)ccc3ccccc23)c(=O)n1CC(=O)NCC1CCCO1 (stereo unspecified)	> 100 µM (inactive)	> 100 µM	> 100 µM	> 100 µM
CCOc1cc(CNC(C)C)c(Cl)cc1OCC(=O)NCCc1ccccc1	> 100 µM (inactive)	> 100 µM	> 100 µM	> 100 µM
